Calls of active or inactive are those of the source. The rule behind the calls is not given here.
Experiments:
[1] = Antioxidant activity assessed as DPPH radical scavenging activity at 100 uM incubated for 2 hrs by microplate reader method; format: functional
[2] = target: Cholinesterase (Equus caballus, UniProt P81908)
Description: Inhibition of equine serum BuChE using butyrylthiocholine iodide as substrate preincubated with enzyme for 20 mins followed by substrate addition and measured after 20 mins by Ellman's method

[3] = target: Acetylcholinesterase (Electrophorus electricus, UniProt O42275); test: Inhibition of electric eel AChE using acetylthiocholine iodide as substrate preincubated with enzyme for 20 mins followed by substrate addition and measured after 20 mins by Ellman's method
Chain of Acetylcholinesterase (Electrophorus electricus, UniProt O42275) (O42275 whole entry): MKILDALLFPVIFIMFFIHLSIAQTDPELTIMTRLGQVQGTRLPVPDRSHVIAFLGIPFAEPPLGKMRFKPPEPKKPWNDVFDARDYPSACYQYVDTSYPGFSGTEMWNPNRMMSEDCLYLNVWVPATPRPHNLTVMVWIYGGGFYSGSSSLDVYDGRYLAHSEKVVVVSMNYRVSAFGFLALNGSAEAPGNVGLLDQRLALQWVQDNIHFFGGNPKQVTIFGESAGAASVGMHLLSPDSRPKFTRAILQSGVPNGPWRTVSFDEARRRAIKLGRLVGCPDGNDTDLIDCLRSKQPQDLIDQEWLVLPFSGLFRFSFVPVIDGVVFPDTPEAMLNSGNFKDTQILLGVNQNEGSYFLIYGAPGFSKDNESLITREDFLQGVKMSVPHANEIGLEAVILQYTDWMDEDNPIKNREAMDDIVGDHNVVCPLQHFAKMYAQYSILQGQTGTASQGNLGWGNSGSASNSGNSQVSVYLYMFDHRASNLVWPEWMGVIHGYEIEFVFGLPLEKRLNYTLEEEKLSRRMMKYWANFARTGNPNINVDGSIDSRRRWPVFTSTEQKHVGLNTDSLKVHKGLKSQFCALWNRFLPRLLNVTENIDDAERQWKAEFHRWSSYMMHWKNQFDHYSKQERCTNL

[4] = n-Octanol/PBS partition coefficient, logP of the compound incubated for 48 hrs at pH 7.4 by shake flask method; format: physicochemical
[5] = target: Cholinesterase (Equus caballus) (UniProt P81908); test: Pseudo-irreversible inhibition of equine serum BuChE assessed as overall carbamolyation-rate using butyrylthiocholine iodide as substrate preincubated with enzyme for 60 mins prior to substrate addition; format: cell-free
Chain of Cholinesterase (Equus caballus) (P81908 whole entry): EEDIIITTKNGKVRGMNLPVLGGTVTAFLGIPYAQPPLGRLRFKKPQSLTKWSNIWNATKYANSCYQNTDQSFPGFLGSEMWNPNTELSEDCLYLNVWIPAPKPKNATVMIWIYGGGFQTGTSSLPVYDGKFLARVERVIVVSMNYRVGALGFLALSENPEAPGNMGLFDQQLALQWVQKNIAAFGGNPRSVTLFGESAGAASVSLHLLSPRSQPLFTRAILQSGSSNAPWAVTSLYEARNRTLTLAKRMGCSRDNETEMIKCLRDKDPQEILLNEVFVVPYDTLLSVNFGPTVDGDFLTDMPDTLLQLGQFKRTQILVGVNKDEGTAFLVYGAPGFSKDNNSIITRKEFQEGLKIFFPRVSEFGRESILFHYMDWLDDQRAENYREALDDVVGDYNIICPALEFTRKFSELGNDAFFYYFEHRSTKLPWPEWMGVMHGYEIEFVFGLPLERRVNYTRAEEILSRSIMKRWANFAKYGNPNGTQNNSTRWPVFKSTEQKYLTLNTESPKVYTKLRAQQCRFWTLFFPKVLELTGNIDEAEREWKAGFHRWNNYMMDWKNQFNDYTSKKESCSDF

[6] = target: Cholinesterase (Equus caballus) (UniProt P81908); test: Pseudo-irreversible inhibition of equine serum BuChE assessed as carbamolyation-rate using butyrylthiocholine iodide as substrate preincubated with enzyme for 60 mins prior to substrate addition; format: cell-free
[7] = target: Cholinesterase (Equus caballus) (UniProt P81908); test: Pseudo-irreversible inhibition of equine serum BuChE assessed as decarbamolyation-rate using butyrylthiocholine iodide as substrate preincubated with enzyme for 60 mins prior to substrate addition; format: cell-free
[8] = target: T1, Acetylcholinesterase (Homo sapiens, UniProt P22303); test: Inhibition of human AChE using acetylthiocholine iodide as substrate at 20 uM preincubated with enzyme for 5 mins followed by substrate addition and measured after 5 mins by Ellman's method; details: time 10.0 min
T1 sequence (P22303 whole entry): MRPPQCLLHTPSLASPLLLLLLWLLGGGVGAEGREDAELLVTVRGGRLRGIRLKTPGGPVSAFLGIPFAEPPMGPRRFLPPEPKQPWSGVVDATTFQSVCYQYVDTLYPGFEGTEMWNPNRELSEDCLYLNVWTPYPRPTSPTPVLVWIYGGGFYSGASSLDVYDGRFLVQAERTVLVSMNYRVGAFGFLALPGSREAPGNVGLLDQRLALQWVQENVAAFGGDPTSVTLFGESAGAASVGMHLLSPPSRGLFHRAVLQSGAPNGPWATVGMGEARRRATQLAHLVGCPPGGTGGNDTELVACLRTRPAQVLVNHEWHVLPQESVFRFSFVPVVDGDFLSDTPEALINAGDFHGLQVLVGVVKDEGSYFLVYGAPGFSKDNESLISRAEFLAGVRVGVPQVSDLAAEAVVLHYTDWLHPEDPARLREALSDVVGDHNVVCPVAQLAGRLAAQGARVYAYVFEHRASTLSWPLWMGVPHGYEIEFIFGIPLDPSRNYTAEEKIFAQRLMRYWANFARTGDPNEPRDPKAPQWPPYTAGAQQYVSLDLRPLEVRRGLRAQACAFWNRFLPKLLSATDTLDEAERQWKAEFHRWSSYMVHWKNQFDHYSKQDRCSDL

[9] = target: T1, Acetylcholinesterase; test: Inhibition of human AChE using acetylthiocholine iodide as substrate preincubated with enzyme for 5 mins followed by substrate addition and measured after 5 mins by Ellman's method
[10] = target: Cholinesterase (Homo sapiens, UniProt P06276)
Chain of Cholinesterase (Homo sapiens, UniProt P06276) (P06276 whole entry): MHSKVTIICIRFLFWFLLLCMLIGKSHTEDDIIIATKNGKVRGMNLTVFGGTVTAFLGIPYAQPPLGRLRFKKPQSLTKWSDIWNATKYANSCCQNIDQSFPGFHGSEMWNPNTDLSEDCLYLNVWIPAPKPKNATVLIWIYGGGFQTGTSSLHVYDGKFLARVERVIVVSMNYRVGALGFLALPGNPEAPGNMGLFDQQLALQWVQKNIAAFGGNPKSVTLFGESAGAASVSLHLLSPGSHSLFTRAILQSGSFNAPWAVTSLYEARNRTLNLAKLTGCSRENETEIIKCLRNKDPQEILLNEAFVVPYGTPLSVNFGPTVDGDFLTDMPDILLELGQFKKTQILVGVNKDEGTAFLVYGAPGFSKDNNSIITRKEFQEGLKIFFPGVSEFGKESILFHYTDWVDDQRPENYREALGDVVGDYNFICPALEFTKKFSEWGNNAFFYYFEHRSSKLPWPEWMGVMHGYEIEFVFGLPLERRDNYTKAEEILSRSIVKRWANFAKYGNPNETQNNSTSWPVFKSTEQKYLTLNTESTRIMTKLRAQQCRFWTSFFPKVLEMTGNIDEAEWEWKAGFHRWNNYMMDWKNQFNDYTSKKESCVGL
Description: Inhibition of human serum BuChE using butyrylthiocholine iodide as substrate preincubated with enzyme for 5 mins followed by substrate addition and measured after 5 mins by Ellman's method

[11] = target: Acetylcholinesterase (Electrophorus electricus) (UniProt O42275); test: Inhibition of electric eel AChE using acetylthiocholine iodide as substrate at 20 uM preincubated with enzyme for 20 mins followed by substrate addition and measured after 20 mins by Ellman's method; details: time 40.0 min
Chain of Acetylcholinesterase (Electrophorus electricus) (O42275 24-633 limits assumed): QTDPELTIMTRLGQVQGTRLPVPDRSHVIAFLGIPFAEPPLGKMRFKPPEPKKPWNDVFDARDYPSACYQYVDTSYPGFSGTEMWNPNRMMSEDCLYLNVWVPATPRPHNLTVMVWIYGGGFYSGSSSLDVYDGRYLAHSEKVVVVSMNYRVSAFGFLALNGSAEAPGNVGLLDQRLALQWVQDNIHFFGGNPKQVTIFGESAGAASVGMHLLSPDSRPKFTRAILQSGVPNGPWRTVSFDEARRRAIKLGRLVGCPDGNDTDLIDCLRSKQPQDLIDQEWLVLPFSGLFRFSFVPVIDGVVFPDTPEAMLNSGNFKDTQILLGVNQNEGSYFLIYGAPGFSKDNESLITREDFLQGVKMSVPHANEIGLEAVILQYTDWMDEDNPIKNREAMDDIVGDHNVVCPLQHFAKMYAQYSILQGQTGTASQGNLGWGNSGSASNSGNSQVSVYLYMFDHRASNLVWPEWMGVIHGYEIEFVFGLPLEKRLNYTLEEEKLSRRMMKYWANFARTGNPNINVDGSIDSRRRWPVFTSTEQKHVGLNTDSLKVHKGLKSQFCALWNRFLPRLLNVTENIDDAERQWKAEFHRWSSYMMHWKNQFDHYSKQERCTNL

Chain of Cholinesterase (Equus caballus, UniProt P81908) (P81908 whole entry): as the sequence (P81908 whole entry) above

Compound	inhibition [1]	IC50 [2] [nM]	IC50 [3]	logD at 48 h [4]	other results
C=C(C)[C@@H]1CCC(C)=C[C@H]1c1c(O)cc(CCCCC)cc1OC(=O)N(C)Cc1ccccc1	21.1%	46	Not Active	2.2	
C=C(C)[C@@H]1CCC(C)=C[C@H]1c1c(O)cc(CCCCC)cc1OC(=O)N(C)Cc1ccc(F)cc1	27%	69	Not Active		
C=C(C)[C@@H]1CCC(C)=C[C@H]1c1c(O)cc(CCCCC)cc1OC(=O)N1CCOCC1	21.1%	1890	Not Active		
CCN(C)C(=O)Oc1cccc([C@H](C)N(C)C)c1	2.5%				K [5]: 0.26 µM/min; K [6]: 0.3 min⁻¹; K [7]: 4.97 10^3/min; inhibition [8]: 12.2%
C=C(C)[C@@H]1CCC(C)=C[C@H]1c1c(O)cc(CCCCC)cc1OC(=O)N(C)Cc1cccc(Cl)c1	inactive	2820	Not Active		
C=C(C)[C@@H]1CCC(C)=C[C@H]1c1c(O)cc(CCCCC)cc1OC(=O)N(C)Cc1ccc(Br)cc1	41.8%	7.3	Not Active	2.37	IC50 [9]: Not Active; IC50 [10]: 2150 nM
C=C(C)[C@@H]1CCC(C)=C[C@H]1c1c(OC(=O)N(C)CC)cc(CCCCC)cc1OC(=O)N(C)CC	0.1%	290	Not Active	2.57	
C=C(C)[C@@H]1CCC(C)=C[C@H]1c1c(OC(=O)N2CCOCC2)cc(CCCCC)cc1OC(=O)N1CCOCC1	2%	3360	Not Active		
C=C(C)[C@@H]1CCC(C)=C[C@H]1c1c(O)cc(CCCCC)cc1OC(=O)N(C)C	27.1%	200			inhibition [11]: 36.1%
O=C1O[C@H]([C@@H](O)CO)C(O)=C1O	86.2%				
